Structures are written as SMILES. In brackets after ≈: the same amount, converted by molar mass.

This data set concerns aqueous kinetic solubility, pH 7.4 phosphate buffer, LC-UV/MS. The experiment in a line: qHTS Assay to Find Inhibitors of T. brucei phosphofructokinase: Aqueous Kinetic Solubility. The settings on record: stronger effect = higher value.

`O=C(Cc1ccc(Cl)c(Cl)c1)Nc1ccc(S(=O)(=O)Nc2ccon2)cc1`: the solubility was 150 µM (≈ 63.9 µg/mL).

(Values after PubChem BioAssay AID624130 (National Center for Advancing Translational Sciences (NCATS), 2012).)
